Results as given in PMC11965169, “Flavin-containing siderophore-interacting protein of Shewanella putrefaciens DSM 9451 reveals common structural and functional aspects of ferric–siderophore reduction” (Journal of Biological Inorganic Chemistry, 2025).

Assays:
[1] = biological target: T1, SbSIP (siderophore-interacting protein, flavin-containing siderophore reductase) (Shewanella bicestrii, UniProt A0A220UGT4); assay: X-ray crystal structure, […] Å; type: binding
T1 construct: gene CF168_00510; Trx-His10 tag-free SbSIP; chains A and B, residues 1-3/247-251 and 1-5/249-251 not modelled
T1 sequence (A0A220UGT4 1-250): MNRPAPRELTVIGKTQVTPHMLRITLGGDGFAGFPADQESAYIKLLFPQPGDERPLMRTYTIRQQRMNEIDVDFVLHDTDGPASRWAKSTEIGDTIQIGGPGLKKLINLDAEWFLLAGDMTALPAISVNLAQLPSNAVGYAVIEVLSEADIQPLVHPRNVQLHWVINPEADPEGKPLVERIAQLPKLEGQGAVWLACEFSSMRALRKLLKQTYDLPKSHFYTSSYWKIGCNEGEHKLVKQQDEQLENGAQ

[2] = biological target: T2, SbSIP (siderophore-interacting protein, flavin-containing siderophore reductase) (Shewanella bicestrii, UniProt A0A220UGT4); assay: […] NMR titration (slow exchange); type: binding
T2 construct: gene CF168_00510

[3] = biological target: T2, SbSIP (siderophore-interacting protein, flavin-containing siderophore reductase); assay: […] NMR titration (fast exchange, chemical shift perturbation); type: binding
[4] = biological target: T2, SbSIP (siderophore-interacting protein, flavin-containing siderophore reductase); assay: stopped-flow reduction of ferric siderophore by purified SbSIPsemi, […] nm; type: biochemical

Cc1cc2nc3c(=O)[nH]c(=O)nc-3n(C[C@H](O)[C@H](O)[C@H](O)COP(=O)(O)OP(=O)(O)OC[C@H]3O[C@@H](n4cnc5c(N)ncnc54)[C@H](O)[C@@H]3O)c2cc1C [FAD]
X-ray crystal structure, 1.86 Å [1]: contained two SbSIP protein chains (A and B), each one bound to an FAD moiety

NC(=O)C1=CN([C@@H]2O[C@H](COP(=O)(O)OP(=O)(O)OC[C@H]3O[C@@H](n4cnc5c(N)ncnc54)[C@H](O)[C@@H]3O)[C@@H](O)[C@H]2O)C=CC1 [NADH]
Kd [2]: 17 ± 5 µM

NC(=O)C1=CN([C@@H]2O[C@H](COP(=O)(O)OP(=O)(O)OC[C@H]3O[C@@H](n4cnc5c(N)ncnc54)[C@H](OP(=O)(O)O)[C@@H]3O)[C@@H](O)[C@H]2O)C=CC1 [NADPH]
Kd [3]: 107 ± 2 µM

Fe(III)–bisucaberin
stopped-flow reduction of ferric siderophore by purified SbSIPsemi, 600 nm [4]: 0.0014 ± 2 × 10^–4

Fe(III)–putrebactin
stopped-flow reduction of ferric siderophore by purified SbSIPsemi, 600 nm [4]: 0.0031 ± 5 × 10^–5
